Assay results from paper PMC5473854, “Structure of the human TRiC/CCT Subunit 5 associated with hereditary sensory neuropathy” (Scientific Reports, 2017).

Target: T1, human CCT5 (TRiC subunit 5) homo-oligomeric complex (Homo sapiens, UniProt P48643, H147R)
T1 construct: recombinant from pET21a in E. coli BL21(DE3)RIL, Histrap purified (tag not described here); double homo-octameric ring (two rings of eight, homo-hexadecamer)
Experiment: X-ray crystal structure, […] Å
Settings: co-crystallised with 5.0 mM ADP; nucleotide-binding site of equatorial domain; 4 ADP per 4 subunits in asymmetric unit

T1 sequence (P48643 whole entry H147R, one chain of several): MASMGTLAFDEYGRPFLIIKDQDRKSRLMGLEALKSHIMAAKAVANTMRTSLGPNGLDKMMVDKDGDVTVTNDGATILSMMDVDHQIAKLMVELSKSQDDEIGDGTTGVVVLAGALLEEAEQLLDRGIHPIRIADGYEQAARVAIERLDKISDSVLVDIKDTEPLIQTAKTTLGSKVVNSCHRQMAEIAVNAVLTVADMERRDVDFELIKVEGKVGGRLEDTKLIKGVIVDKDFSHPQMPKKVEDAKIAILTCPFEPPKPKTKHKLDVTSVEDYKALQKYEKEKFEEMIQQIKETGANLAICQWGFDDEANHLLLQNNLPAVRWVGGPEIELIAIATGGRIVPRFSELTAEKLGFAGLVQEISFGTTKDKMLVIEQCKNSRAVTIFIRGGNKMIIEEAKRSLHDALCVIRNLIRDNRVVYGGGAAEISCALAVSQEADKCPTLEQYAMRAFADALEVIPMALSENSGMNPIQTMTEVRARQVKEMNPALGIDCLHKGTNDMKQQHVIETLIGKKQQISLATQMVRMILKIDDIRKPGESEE

Nc1ncnc2c1ncn2[C@@H]1O[C@H](COP(=O)(O)OP(=O)(O)O)[C@@H](O)[C@H]1O [ADP]
X-ray crystal structure, 3.6 Å: the CCT5-H147R structure was solved in complex with the nucleotide ADP
